Data as given in PMC9737983, “Quantification of Paeoniflorin by Fully Validated LC–MS/MS Method: Its Application to Pharmacokinetic Interaction between Paeoniflorin and Verapamil” (Molecules, 2022).
Like-named read-outs stand apart in the source and are kept apart here. Each block holds one compound with its values, some of them ahead of it.

How the values were obtained:
[1] = parameters: method as in PMID 31400507; settings: cited from earlier work; for BCS class: classic BCS, everted gut sac assay
Caco-2 cell = settings: Caco-2 monolayer cell; cited from earlier work
[2] = Stability of PF in SD rat plasma under storage conditions; type: in vitro ADME; settings: for Freeze-thaw Stability, Measured Conc. / Bench-top Stability, Measured Conc. / Long-term Stability, Measured Conc.: SD rat plasma; for Freeze-thaw Stability, Measured Conc.: 4 cycles at −20 °C; for Freeze-thaw Stability, Measured Conc. / Bench-top Stability, Measured Conc. / Long-term Stability, Measured Conc. / Autosampler Stability, Measured Conc.: n = 6; for Bench-top Stability, Measured Conc.: room temperature for 16 h; for Long-term Stability, Measured Conc.: −20 °C for 90 days; for Autosampler Stability, Measured Conc.: extracted SD rat plasma, 10 °C for 72 h
Method: Stability in the plasma was tested by comparing the two-level QC samples (LQC and HQC) in sextuplicate injections to theoretical concentrations.
The stability of PF in rat plasma was investigated by analyzing QC samples at […]. Long-term stability was tested at −20 °C for at least 30 days; short-term stability was tested at room temperature for at least 6 h; the post-preparative stability test was conducted at 10 °C for 72 […] The determined concentrations should be within ±15% of the nominal concentrations.

[3] = Pharmacokinetic study in male SD rats (intravenous, oral, oral co-administration with verapamil); type: in vivo, Sprague–Dawley rats; settings: for MRT inf: read-out: MRT0–∞; for Vd/F: read-out: Vz/F
Method: The animal experiment was approved by the Experimental Animal Ethics Committee of Shanghai University of Traditional Chinese Medicine (the Ethics Number: PZSHUTCM201016015). After 7 days of freely feeding the animals to acclimation, the rats were randomly divided into five groups, including the following: PF at an intravenous dose of 2 mg/kg and intragastric administrations of 5 mg/kg, 10 mg/kg, and 20 mg/kg; PF combined with verapamil at doses of 20 mg/kg and 50 mg/kg, respectively. All groups of PF or PF combined with verapamil were dissolved in saline to be completely dissolved or suspended. Blood samples were collected into EDTA−2K anti-coagulant tubes at projected times (0.083, 0.25, 0.5, 1, 2, 4, and 6 h post-dose) and then immediately centrifuged at 5500 rpm at 4 °C for 10 min to obtain the supernatant. The plasma samples were stored at −20 °C prior to analysis.
The plasma drug concentration of the PF was quantitated, according to the calibration curve, by the ratio of the analyte-to-IS peak areas obtained for each sample. Pharmacokinetic parameters, such as elimination half-life (T1/2), the area under the concentration–time curve from time zero to infinity (AUC0–∞), total body clearance (CL), and volume of distribution (Vz), were analyzed by the non-compartment model using WinNonlin software (Version 8.2). Subsequently, the main pharmacokinetic parameters were analyzed by an independent sample t-test. The oral absolute bioavailability was calculated as prescribed by the following equation: F (%) = (AUCp.o. × Dosei.v.)/(AUCi.v. × Dosep.o.) × 100%.

Caco−2 cells = assay: Caco-2 Transwell transport of PF with and without verapamil; type: in vitro ADME; settings: with/without verapamil, p < 0.05
Method: (§1) The Caco−2 cells were purchased from ATCC (Manassas, VA, USA) and cultured in a DMEM high-glucose medium with 15% FBS, 1% NEAA, and 100 U/mL penicillin and streptomycin. A total of 1.25 × 10^5 cells/cm^2 were seeded into […] (PET) in 96-well Falcon insert systems for 21–28 days to obtain a confluent cell monolayer. The test compounds were diluted with the transport buffer (HBSS with BSA) obtained from a 10 mM stock solution to a concentration of 10 µM and applied to the apical or basolateral sides of the cell monolayer. The permeation of the test compounds from A to B directions or B to A directions was determined in duplicate over a 120-min incubation period at 37 °C and 5% CO2 with a relative humidity of 95%. In addition, the efflux ratio of each compound was also determined. Test and reference compounds were quantified by LC-MS/MS analysis based on the peak area ratio of analyte/IS. The apparent permeability coefficient, Papp (cm/s), was calculated using the following equation:Papp = (dCr/dt) × Vr/(A × C0) where dCr/dt is the cumulative concentration of the compound in the receiver chamber as a function of time (S); Vr is the solution volume in the receiver chamber (0.1 mL on the apical side and 0.25 mL on the basolateral side); A is the surface area for the transport, i.e., 0.0804 cm^2 for the area of the monolayer and C0 is the initial concentration in the donor chamber. The efflux ratio was calculated using the following equation:Efflux Ratio = Papp BA/Papp AB where Papp BA is the apparent permeability coefficient obtained from the BL to AP sides (cm/s), and Papp AB is the apparent permeability coefficient obtained from the AP to BL sides (cm/s).

[4] = as above; type: in vitro ADME; settings: human, Caco-2, absence of verapamil
Method: as §1

[5] = male, Sprague-Dawley, rat, plasma, iv, 2 mg/kg, intravenous 2 mg/kg, n = 5
[6] = male, Sprague-Dawley, rat, plasma, po, 5 mg/kg, oral mono-administration 5 mg/kg, n = 5
[7] = male, Sprague-Dawley, rat, plasma, po, 10 mg/kg, oral mono-administration 10 mg/kg, n = 5
[8] = male, Sprague-Dawley, rat, plasma, po, 20 mg/kg, oral 20 mg/kg co-administration with verapamil (50 mg/kg), n = 5
[9] = male, Sprague-Dawley, rat, plasma, po, 20 mg/kg, oral mono-administration 20 mg/kg, n = 5
[10] = male, Sprague-Dawley, rat, plasma, po, 20 mg/kg, range over oral doses 5, 10, 20 mg/kg
[11] = male, Sprague-Dawley, rat, plasma, intravenous 2 mg/kg, n = 5
[12] = oral 20 mg/kg with verapamil vs alone, p < 0.05

stability in SD rat plasma ([2]; 16 h bench-top, 72 h autosampler, 4 freeze-thaw cycles at −20 °C, 90 days at −20 °C): stable | Freeze-thaw Stability, Measured Conc. ([2]; nominal 3.0 ng/mL): 3.14 ± 0.17 ng/mL | Freeze-thaw Stability, Measured Conc. ([2]; nominal 1500 ng/mL): 1662 ± 44.5 ng/mL | Bench-top Stability, Measured Conc. ([2]; nominal 3.0 ng/mL): 3.01 ± 0.21 ng/mL | Bench-top Stability, Measured Conc. ([2]; nominal 1500 ng/mL): 1538 ± 52.0 ng/mL | Long-term Stability, Measured Conc. ([2]; nominal 3.0 ng/mL): 2.86 ± 0.20 ng/mL | Long-term Stability, Measured Conc. ([2]; nominal 1500 ng/mL): 1500 ± 37.4 ng/mL | Autosampler Stability, Measured Conc. ([2]; nominal 3.0 ng/mL): 2.91 ± 0.16 ng/mL | Autosampler Stability, Measured Conc. ([2]; nominal 1500 ng/mL): 1535 ± 54.7 ng/mL | AUC(0-inf) [3, 5]: 2.4 ± 0.201 µg·h/mL | AUC(0-t) [3, 5]: 2.4 ± 0.202 µg·h/mL | half-life [3, 5]: 54 ± 24 min | MRT inf [3, 5]: 12 min | bioavailability ([3]; male, Sprague-Dawley, rat, plasma, po, 5 mg/kg, oral mono-administration 5 mg/kg vs intravenous 2 mg/kg, read-out: F): 1.3% | AUC(0-inf) [3, 6]: 0.0747 ± 0.0491 µg·h/mL | AUC(0-t) [3, 6]: 0.0647 ± 0.044 µg·h/mL | CL/F [3, 6]: 98.2 L/h/kg | Cmax [3, 6]: 0.0423 ± 0.0175 µg/mL | Tmax [3, 6]: 30 min | half-life [3, 6]: 48 ± 24 min | MRT inf [3, 6]: 78 ± 30 min | Vd/F [3, 6]: 85.7 ± 21.1 L/kg | bioavailability ([3]; male, Sprague-Dawley, rat, plasma, po, 10 mg/kg, oral mono-administration 10 mg/kg vs intravenous 2 mg/kg, read-out: F): 0.7% | AUC(0-inf) [3, 7]: 0.084 ± 0.017 µg·h/mL | AUC(0-t) [3, 7]: 0.0823 ± 0.0184 µg·h/mL | CL/F [3, 7]: 123 L/h/kg | Cmax [3, 7]: 0.0634 ± 0.0114 µg/mL | Tmax [3, 7]: 30 min | half-life [3, 7]: 30 ± 6 min | MRT inf [3, 7]: 60 ± 12 min | Vd/F [3, 7]: 89 ± 7.1 L/kg | AUC(0-inf) [3, 8]: 0.892 ± 0.487 µg·h/mL | AUC(0-t) [3, 8]: 0.882 ± 0.491 µg·h/mL | CL/F [3, 8]: 29.2 L/h/kg | Cmax [3, 8]: 0.464 ± 0.237 µg/mL | Tmax [3, 8]: 42 ± 18 min | half-life [3, 8]: 42 ± 6 min | MRT inf [3, 8]: 90 ± 6 min | Vd/F [3, 8]: 31.5 ± 20.3 L/kg | bioavailability ([3]; male, Sprague-Dawley, rat, plasma, po, 20 mg/kg, oral 20 mg/kg co-administration with verapamil vs intravenous 2 mg/kg, read-out: F): 3.7% | bioavailability ([3]; male, Sprague-Dawley, rat, plasma, po, 20 mg/kg, oral mono-administration 20 mg/kg vs intravenous 2 mg/kg, read-out: F): 0.6% | AUC(0-inf) [3, 9]: 0.157 ± 0.0653 µg·h/mL | AUC(0-t) [3, 9]: 0.149 ± 0.0648 µg·h/mL | CL/F [3, 9]: 145 L/h/kg | Cmax [3, 9]: 0.1 ± 0.0425 µg/mL | Tmax [3, 9]: 42 ± 18 min | half-life [3, 9]: 30 ± 6 min | MRT inf [3, 9]: 72 ± 6 min | Vd/F [3, 9]: 112 ± 45.7 L/kg | CL/F [3, 10]: 98.2 to 145 L/h/kg | Tmax [3, 10]: 30 to 42 min | half-life [3, 10]: 30 to 48 min | bioavailability ([3]; male, Sprague-Dawley, rat, plasma, po, 20 mg/kg, range over oral doses 5, 10, 20 mg/kg, read-out: absolute oral bioavailability): 0.6 to 1.3% | C0 [3, 11]: 11.2 µg/mL | clearance [3, 11]: 0.8 L/h/kg | Vd ([3]; male, Sprague-Dawley, rat, plasma, intravenous 2 mg/kg, n = 5, read-out: Vz): 0.2 L/kg | Cmax ([3]; oral 5 mg/kg): 0.0423 ± 0.0175 µg/mL | Cmax ([3]; oral 10 mg/kg): 0.0634 ± 0.0114 µg/mL | Cmax ([3]; oral 20 mg/kg): 0.1 ± 0.0425 µg/mL | increase of Cmax, co-administration vs mono-administration ([3]; oral 20 mg/kg with verapamil vs alone, p < 0.01): 4.6 times | increase of AUC0–t, co-administration vs mono-administration [3, 12]: 5.9 times | increase of AUC0–∞, co-administration vs mono-administration [3, 12]: 5.7 times | Tmax, T1/2 and MRT0–∞, co-administration vs mono-administration ([3]; oral 20 mg/kg with verapamil vs alone, statistical analysis): no significant difference | efflux ratio at 120 min, 10 µM [4]: 1.52 | Papp A→B at 120 min, 10 µM ([4]; 10 µM, 120 min): 1.7 nm/s | Papp B→A at 120 min, 10 µM ([4]; 10 µM, 120 min): 2.6 nm/s
Compound: C[C@@]12C[C@@]3(O)O[C@@H](O1)[C@]1(COC(=O)c4ccccc4)[C@H]3C[C@@]12O[C@@H]1O[C@H](CO)[C@@H](O)[C@H](O)[C@H]1O [PF, paeoniflorin]
solubility and permeability characteristics [1]: high solubility and low permeability | efflux rate constant (Caco-2 cell): higher than 2 | P-gp substrate status (Caco−2 cells): may be a substrate for the P-gp efflux transporter

Compound: O=c1c(O[C@@H]2O[C@H](CO)[C@H](O)[C@H](O)[C@H]2O)c(-c2ccc(O)c(O)c2)oc2cc(O)cc(O)c12 [hyperoside]
BCS class [1]: III/IV

Compound: COc1cc2c3c(c1OC)-c1ccccc1C[C@H]3N(C)CC2 [nuciferine]
BCS class [1]: III/IV

Compound: C[C@@H]1O[C@@H](OC[C@H]2O[C@@H](Oc3c(-c4ccc(O)c(O)c4)oc4cc(O)cc(O)c4c3=O)[C@H](O)[C@@H](O)[C@@H]2O)[C@H](O)[C@H](O)[C@H]1O [rutin]
BCS class [1]: III/IV

Compound: salvianolic acid B
BCS class [1]: III/IV
